Patent publication US20230356105A1, “TETRAAZADODECANE BASED CHELATING AGENTS FOR SEPARATION OF RARE EARTH ELEMENTS AND METHOD THEREFOR” (Ustav Organicke Chemie a Biochemie AV CR V.V.I., priority 2020, published 2023)
“And” between values parts separate entries of the source, which are not always exact repeats. Equal values may be shown once.

Legend:
Format in all cases: physicochemical
[1] = Separation of Tb/Dy mixture by repeated precipitation using L5 and α-HIBA (Example 20); conditions: for Precipitate concentration [mM] Dy / precipitate concentration [mm] Tb: dissolved to 200 μL
Experimental: Analogous to Example 19, three reaction mixtures were prepared with the following changes: the rare-earth elements were Tb and Dy, and 0.5 molar equivalents (5 mM reaction concentration) of α-HIBA were used. Otherwise, the experiment was run analogously to Example 19.
The resulting absolute concentrations of both metals in the supernatants and precipitates, as well as calculated values of the separation factor Dy/Tb according to the formula from Example 11), are summarized in Table 14. […] The average separation factor was 2.32.

[2] = Use of additives to improve separation of Nd/Dy mixture by precipitation with L5 (Example 18); conditions: no additive (0 mM); 11 mM L5
How it was run: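 Mixtures held 5 mM NdCl3, 5 mM DyCl3 and 500 mM MOPS pH 7 with L5, plus additives at variable concentration adjusted to pH 7. Stirred 18 h in sealed cuvettes, then centrifuged; precipitate redissolved in 1 M HCl. Nd and Dy measured in supernatant and precipitate by ICP-OES.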

[3] = Separation of Nd/Pr mixture by repeated precipitation using L5 and α-HIBA (Example 19); conditions: for Precipitate concentration [mM] Nd / precipitate concentration [mM] Pr: dissolved to 200 μL
Experimental: Stock solutions were pipetted into 4 mL glass vials to prepare reaction mixtures with concentrations as follows: • 1. 11 mM (1.1 eq) chelator L5 • 2. 5 mM (0.5 eq) PrCl3 • 3. 5 mM (0.5 eq) NdCl3 • 4. […] (4 eq) α-HIBA pH=6.5 • 5. 500 mM (50 eq) MOPS pH=7
Three aqueous reaction mixtures, numbered 1-3, were prepared with a total volume of 2 mL each and were treated identically throughout the process. A PTFE-coated magnetic stir bar was added to each and the reaction mixtures were stirred on a magnetic stirrer overnight at room temperature. After 18 hours, a 200 μL aliquot of the resulting suspension was taken from each vial and labelled as Al, A2, or A3, according to the reaction mixture number it was taken from. The aliquots were then centrifuged in a plastic Eppendorf centrifuge tube. The supernatant was carefully pipetted from each and transferred to a new set of tubes. To the precipitate was added 200 μL 1 M HCl and the mixture was stirred until full dissolution (about 1 hour at room temperature). The Nd and Pr content of these precipitate and supernatant samples was determined by ICP-OES. The remaining 1800 μL of reaction mixture were centrifuged in plastic Eppendorf centrifuge vials, and the supernatant was set aside. A sample of the supernatant was analysed on HPLC-MS and peak areas were compared to those of a standard 10 mM chelate solution; this allowed for calculation of the approximate concentration of chelate remaining in solution, and therefore of the quantity of chelate which had precipitated. The total volume for subsequent reactions was scaled according to this information, such that the concentration of chelate in solution prior to precipitation was 10 mM, even as the net quantity of chelate present was reduced. The precipitate, then, was dissolved by addition of 25 molar equivalents of 1 M HCl and transferred to a clean 4 mL glass vial with a PTFE-coated magnetic stir bar. 4 molar equivalents of a-HIBA were added to this vial, followed by 50 molar equivalents 3 M MOPS pH=7, the necessary calculated volume of water, and 25 molar equivalents 2 M NaOH to finish neutralising the reaction mixture. (The final reaction volume here was not so important as the final reaction concentrations.) The reaction mixtures were again stirred on a magnetic stirrer at room temperature overnight. After 18 hours, the resulting suspensions were treated in the same manner as before, with 200 μL aliquots (labelled as B1, B2, B3) taken for ICP-OES determination of the Nd and Pr content of the precipitate and supernatant. The remaining 1600 μL of reaction mixture were centrifuged, and the supernatant was analysed by HPLC-MS; the precipitate was treated as before to again yield a reaction solution with an initial concentration of 10 mM of chelate. The reaction mixtures were stirred overnight for the third repetition of processing, and 200 μL aliquots (C1, C2, C3) were again treated for ICP-OES determination of Nd and Pr content in the precipitate and supernatant after 18 hours. The resulting absolute concentrations of both metals in the supernatants and precipitates, as well as calculated values of the separation factor Nd/Pr according to the formula from Example 11), are summarized in Table 13. […] The average separation factor was 1.69.

Compound: O=C(O)CN1CCN(CC(=O)O)CCN(Cc2cccc3ccccc23)CCN(CC(=O)O)CC1 [L5, 2,2′,2″-(10-(naphthalene-1-ylmethyl)-1,4,7,10-tetraazacyklododekane-1,4,7-triyl)triacetic acid]
- Supernatant concentration [mM] Dy ([1]; A, 1st precipitation): 1.41 mM and 1.47 mM and 1.59 mM
- Supernatant concentration [mM] Tb ([1]; A, 1st precipitation, 5 mM α-HIBA): 0.77 mM and 0.86 mM
- Supernatant concentration [mM] Tb ([1]; A, 1st precipitation, 5 mM α-HIBA, mean): 0.82 mM
- Precipitate concentration [mM] Dy ([1]; A, 1st precipitation): 3.02 mM and 2.88 mM and 2.92 mM
- Precipitate concentration [mM] Dy ([1]; A, 1st precipitation, mean): 2.94 mM
- precipitate concentration [mm] Tb ([1]; A, 1st precipitation, mean): 3.74 mM
- Supernatant concentration [mM] Dy ([1]; A, 1st precipitation, mean): 1.49 mM
- Supernatant concentration [mM] Dy ([1]; B, 2nd precipitation): 1.27 mM and 1.30 mM and 1.26 mM
- Supernatant concentration [mM] Tb ([1]; B, 2nd precipitation): 0.84 mM and 0.90 mM and 0.79 mM
- Precipitate concentration [mM] Dy ([1]; B, 2nd precipitation): 2.65 mM and 2.72 mM and 2.76 mM
- Precipitate concentration [mM] Dy ([1]; B, 2nd precipitation, mean): 2.71 mM
- precipitate concentration [mm] Tb ([1]; B, 2nd precipitation, mean): 4.16 mM
- Supernatant concentration [mM] Dy ([1]; C, 3rd precipitation): 1.10 mM and 1.20 mM and 1.08 mM
- Supernatant concentration [mM] Tb ([1]; C, 3rd precipitation): 0.90 mM and 0.98 mM and 0.83 mM
- Precipitate concentration [mM] Dy ([1]; C, 3rd precipitation): 2.52 mM and 2.42 mM and 2.72 mM
- Precipitate concentration [mM] Dy ([1]; C, 3rd precipitation, mean): 2.55 mM
- precipitate concentration [mm] Tb ([1]; C, 3rd precipitation, mean): 4.70 mM
- Supernatant concentration [mM] Dy ([1]; C, 3rd precipitation, mean): 1.13 mM
- Precipitate concentration [mM] Dy [2]: 4.60 mM
- Precipitate concentration [mM] Nd [2]: 4.98 mM
- Supernatant concentration [mM] Dy [2]: 0.37 mM
- Supernatant concentration [mM] Nd [2]: 0.07 mM
- Supernatant concentration [mM] Nd ([3]; A, 1st precipitation): 1.16 mM and 1.49 mM
- supernatant concentration [mM] Pr ([3]; A, 1st precipitation, 20 mM (4 eq) α-HIBA): 0.73 mM and 1.00 mM and 0.72 mM
- supernatant concentration [mM] Pr ([3]; A, 1st precipitation, 20 mM (4 eq) α-HIBA, mean): 0.82 mM
- Precipitate concentration [mM] Nd ([3]; A, 1st precipitation): 3.34 mM and 3.17 mM and 3.59 mM
- precipitate concentration [mM] Pr ([3]; A, 1st precipitation): 3.57 mM and 3.50 mM and 3.83 mM
- Precipitate concentration [mM] Nd ([3]; A, 1st precipitation, mean): 3.37 mM
- precipitate concentration [mM] Pr ([3]; A, 1st precipitation, mean): 3.63 mM
- Supernatant concentration [mM] Nd ([3]; A, 1st precipitation, mean): 1.27 mM
- Supernatant concentration [mM] Nd ([3]; B, 2nd precipitation): 0.94 mM and 0.79 mM and 0.88 mM
- supernatant concentration [mM] Pr ([3]; B, 2nd precipitation): 0.63 mM and 0.56 mM and 0.58 mM
- Precipitate concentration [mM] Nd ([3]; B, 2nd precipitation): 3.81 mM and 3.53 mM and 3.91 mM
- precipitate concentration [mM] Pr ([3]; B, 2nd precipitation): 4.45 mM and 4.22 mM and 4.52 mM
- Precipitate concentration [mM] Nd ([3]; B, 2nd precipitation, mean): 3.75 mM
- precipitate concentration [mM] Pr ([3]; B, 2nd precipitation, mean): 4.40 mM
- Supernatant concentration [mM] Nd ([3]; B, 2nd precipitation, mean): 0.87 mM
- supernatant concentration [mM] Pr ([3]; B, 2nd precipitation, mean): 0.59 mM
- Supernatant concentration [mM] Nd ([3]; C, 3rd precipitation): 0.87 mM and 0.93 mM and 0.75 mM
- supernatant concentration [mM] Pr ([3]; C, 3rd precipitation): 0.66 mM and 0.74 mM and 0.56 mM
- Precipitate concentration [mM] Nd ([3]; C, 3rd precipitation): 3.70 mM and 3.29 mM and 4.06 mM
- precipitate concentration [mM] Pr ([3]; C, 3rd precipitation): 4.70 mM and 4.31 mM and 4.98 mM
- Precipitate concentration [mM] Nd ([3]; C, 3rd precipitation, mean): 3.68 mM
- precipitate concentration [mM] Pr ([3]; C, 3rd precipitation, mean): 4.66 mM
- Supernatant concentration [mM] Nd ([3]; C, 3rd precipitation, mean): 0.85 mM
- supernatant concentration [mM] Pr ([3]; C, 3rd precipitation, mean): 0.65 mM
